Measurements from patent US6906205B2, “Spiro and dispiro 1,2,4-trioxolane antimalarials” (Medicines for Malaria Venture MMV, priority 2002, dated 2005).
In brackets after ≈: the same amount, converted by molar mass.

Key:
[1] = system: P. berghei ANKA strain; assay: treatment: 3x10 mg/kg p.o. divided dose vs 1x30 mg/kg po single dose in infected mice; format: in vivo, Plasmodium berghei; details: for Cures: survival to day 30 post-infection = cure, cured/treated mice; for Activity (%) p.o. SSV: percent reduction of parasitemia day 4
Protocol: Moro NMRI male mice (Fü Albino specific pathogen free) weighing 18±2 g were infected intravenously (i.v.) with 2×10^7 P. berghei ANKA strain-infected erythrocytes from donor mice on day 0 of the experiment. From donor mice with circa 30% parasitemia, heparinized blood was taken and diluted in physiological saline to 10^8 parasitized erythrocytes per ml. An aliquot (0.2 ml) of this suspension was injected i.v. into experimental and control groups of mice. […] Throughout the experiments, mice were kept in groups of three or five animals in Makrolon type II cages in an air-conditioned animal room at 22 to 23° C.
They were administered per os (p.o.) in a total volume of 0.01 ml per gram of mouse. The activity of the compound was determined by a variety of methods outlined in subsequent sections. Survival time was also recorded, and survival to day 30 post-infection was considered to be a cure.
The first experiment conducted consisted of administration of a divided 3×10 mg/kg p.o. dose administered on days 1, 2, and 3 post-infection vs. a single 1×30 mg/kg po dose administered on day 1 post-infection. On day 4 post-infection, blood smears of all animals were prepared and stained with Giemsa. […] Compounds were administered orally in the SSV vehicle.

[2] = system: ANKA strain of Plasmodium berghei; assay: single dose ED50/ED90/ED99 determinations in infected mice; format: in vivo; details: single dose po in SSV, mice, percent reduction in parasitemia on day three post-infection
Protocol: In the single dose ED50/ED90/ED99 determinations, Moro SPF or NMRI mice (group of three) infected with the ANKA strain of Plasmodium berghei were treated on day one post-infection. […] The SSV consists of 0.5% w/v CMC, 0.5% v/v benzyl alcohol, 0.4% v/v Tween 80, and 0.9% w/v sodium chloride in water. Antimalarial activity was measured by percent reduction in parasitemia on day three post-infection. The ED50/ED90 values were calculated by nonlinear fitting.

[3] = system: P. berghei ANKA strain; assay: treatment: 3x3 mg/kg and 3x1 mg/kg po divided doses in infected mice; format: in vivo, Plasmodium berghei; details: for Activity (%) p.o. SSV: percent reduction of parasitemia day 4
Protocol: (§1) Moro NMRI male mice (Fü Albino specific pathogen free) weighing 18±2 g were infected intravenously (i.v.) with 2×10^7 P. berghei ANKA strain-infected erythrocytes from donor mice on day 0 of the experiment. From donor mice with circa 30% parasitemia, heparinized blood was taken and diluted in physiological saline to 10^8 parasitized erythrocytes per ml. An aliquot (0.2 ml) of this suspension was injected i.v. into experimental and control groups of mice. In untreated control mice, parasitemia rose regularly to 40 to 50% by day 3 post-infection and 70 to 80% by day 4 post-infection. The mice died between days 5 and 7 post-infection. Throughout the experiments, mice were kept in groups of three or five animals in Makrolon type II cages in an air-conditioned animal room at 22 to 23° C. A diet with p-aminobenzoic acid (PABA) of 45 mg (NAFAG FUTTER© food N^o 9009 PAB-45) per kg of body weight, and tap water is available ad libitum.
(§2) OZ compounds were prepared at an appropriate concentration, either as a solution or a suspension containing SSV (0.5% w/v CMC, 0.5% v/v benzyl alcohol, 0.4% v/v Tween 80, and 0.9% w/v sodium chloride in water). They were administered per os (p.o.) in a total volume of 0.01 ml per gram of mouse. The activity of the compound was determined by a variety of methods outlined in subsequent sections. Survival time was also recorded, and survival to day 30 post-infection was considered to be a cure.
The second experiment consists of administration of divided 3×3 mg/kg and 3×1 mg/kg po doses administered on days 1, 2, and 3 post-infection. On day 4 post-infection, blood smears of all animals were prepared and stained with Giemsa. Parasitemia was determined microscopically, and the difference between the mean value of the control group (taken as 100%) and those of the experimental groups was calculated and expressed as percent reduction. Compounds were administered orally in the SSV vehicle.

[4] = system: ANKA strain of P. berghei; assay: single dose STI in vivo screen in infected mice; set-up: species or system Plasmodium berghei
Procedure, shortened: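 Groups of 3-5 Moro SPF or NMRI mice infected with the ANKA strain of P. berghei received a single dose of trioxolane on day one post-infection. The compound was given in 3% ethanol and 7% Tween 80 or in SSV (0.5% w/v CMC, 0.5% v/v benzyl alcohol, 0.4% v/v Tween 80, 0.9% w/v sodium chloride in water). Antimalarial activity was scored as percent reduction in parasitemia on day three and as survival time versus untreated controls. Survival to day 30 counted as cure.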

[5] = system: Schistosoma mansoni 21-day-old schistosomules; assay: effect on 21-day-old schistosomules in mice; format: in vivo; details: single 200 mg/kg per os, female mice
Protocol: All groups were killed 4 weeks after treatment and the liver and intestine were removed and separated. The liver and intestine were compressed and alive male and female worms could be seen and counted. The effect of the compounds was evaluated by mean total and female worm burden.

[6] = system: P. berghei ANKA strain; assay: prophylactic activity, single 100 mg/kg po dose before infection; format: in vivo, Plasmodium berghei; details: for Prophylactic Activity (%): reduction of parasitemia day 3 post-infection
Protocol: as §1, §2
Prophylactic activities of the compounds were compared after administering po single dose of 100 mg/kg to different groups of five animals at various times before infection. All groups including an untreated control group, were then infected at the same time. Parasitemia was determined for each animal on day 3 post-infection, and percent of reduction of the level of parasitemia compared to levels for animals given no drug is determined.

[7] = system: P. falciparum NF54 strain (sensitive to standard antimalarials); assay: semiautomated microdilution assay, [3H]-hypoxanthine incorporation, NF54 strain; format: cell-based, Plasmodium falciparum; details: NF54 strain, 72 h incubation
Procedure, shortened: (§3)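 Asynchronous stock cultures → intraerythrocytic forms; semiautomated microdilution; IC50 by logit regression.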

[8] = system: P. falciparum K1 strain (Thailand resistant to chloroquine); assay: semiautomated microdilution assay, [3H]-hypoxanthine incorporation, K1 strain; format: cell-based, Plasmodium falciparum; details: K1 strain, 72 h incubation
Procedure, shortened: as §3

[9] = system: Schistosoma mansoni adult schistosomes (49-day-old); assay: effect on adult schistosomes (49-day-old) in mice; format: in vivo; details: single 400 mg/kg per os
Protocol: Mice were infected with 100 Schistosoma mansoni cercariae […]. Each group was treated per os with OZ compounds at single doses of 200, 400, and 600 mg/kg. […] All groups were killed 4 weeks after treatment and the liver and intestine were removed and separated. The liver and intestine were compressed and alive male and female worms could be seen and counted.

[10] = 3 × 1 mg/kg days 1, 2, 3 post-infection
[11] = 3 × 3 mg/kg days 1, 2, 3 post-infection
[12] = 1 × 30 mg/kg single dose day 1 post-infection
[13] = 3 × 10 mg/kg days 1, 2, 3 post-infection
[14] = single 100 mg/kg po 24 h before infection
[15] = single 100 mg/kg po 48 h before infection
[16] = single 100 mg/kg po 72 h before infection

Row | SMILES | Cures ([1]; 1 × 30 mg/kg) | Survival (days) p.o. SSV [3, 10] [days] | Activity (%) p.o. SSV [3, 10] [%] | Survival (days) p.o. SSV [3, 11] [days] | Activity (%) p.o. SSV [3, 11] [%] | Survival (days) p.o. SSV [1, 12] [days] | Activity (%) p.o. SSV [1, 12] [%] | Survival (days) p.o. SSV [1, 13] [days] | Activity (%) p.o. SSV [1, 13] [%] | Prophylactic Activity (%) [6, 14] [%] | Prophylactic Activity (%) [6, 15] [%] | Prophylactic Activity (%) [6, 16] [%] | Prophylactic Activity (%) ([6]; single 100 mg/kg po at 0 h) | other results
1 | CCN(CC)CCCC(C)Nc1ccnc2cc(Cl)ccc12 (stereo not drawn) [CQ, chloroquine, reference compound] | 0/5 |  |  |  |  |  |  |  |  |  |  |  |  | Cures ([1]; 3 × 10 mg/kg): 0/5; ED99 [2]: 5.9 mg/kg
2 | NC[C@H]1CC[C@]2(CC1)OOC1(O2)C2CC3CC(C2)CC1C3 (stereo partly drawn) [OZ209] |  |  |  |  |  |  |  |  |  |  |  |  |  | activity (percent reduction of parasitemia) ([3]; 3×1 mg/kg po on days 1, 2, 3 post-infection, SSV): greater than 99%; Survival (days) SSVpo ([4]; single po dose in SSV, untreated control 5.6 ± 0.3): 10.0 days; % reduction of schistosomule growth at day 21 after per os application of 200 mg/kg, TWR (%) [5]: 85%; ED90 [2]: 1.4 mg/kg; ED99 [2]: 3.0 mg/kg
3 | NCC(=O)NC[C@H]1CC[C@]2(CC1)OO[C@]1(O2)C2CC3CC(C2)CC1C3 [OZ271] |  |  |  |  |  |  |  |  |  |  |  |  |  | Survival (days) 10 mg/kg SSV po ([4]; single 10 mg/kg po in SSV): 8.7 days; % reduction of schistosomule growth at day 21 after per os application of 200 mg/kg, FWR (%) [5]: 86%; % reduction of schistosomule growth at day 21 after per os application of 200 mg/kg, TWR (%) [5]: 88%; duration of prophylactic protection ([6]; single 100 mg/kg po before infection): 3 days; IC50 (ng/ml) NF54 [7]: 0.29 ng/mL (≈ 0.827 nM); IC50 (ng/ml) K1 [8]: 0.36 ng/mL (≈ 1.03 nM); % reduction of adult worms growth at day 49 after per os application of 400 mg/kg, TWR (%) [9]: 0%; adult worms at day 49, per os 400 mg/kg, DEAD WORM (%) [9]: 6%
4 | CS(=O)(=O)O.NCC1CCC2(CC1)OOC1(O2)C2CC3CC(C2)CC1C3 (stereo not drawn) [compound 209] | 0/5 | 9.4 | 99.51 | 16.4 | 100 | >30 | 100 | >30 | 100 | 100 | 99.9 | 99.92 | 100 | 
5 | CS(=O)(=O)O.NCC(=O)NCC1CCC2(CC1)OOC1(O2)C2CC3CC(C2)CC1C3 (stereo not drawn) [compound 271] | 0/5 | 8.8 | 87 | 16.2 | 99.99 | 14 | 99.97 | 27.8 | 100 | 100 | 99.98 | 99.89 | 100 | 
6 | CC(C)(N)CNC(=O)CC1CCC2(CC1)OOC1(O2)C2CC3CC(C2)CC1C3.Cc1ccc(S(=O)(=O)O)cc1 (stereo not drawn) [compound 277] | 0/5 | 9.4 | 83 | 14 | 100 | 10.4 | 99.92 | 27.6 | 100 | 25 | 7 | 9 | 100 | 
7 | CC(C)(N)C(=O)NCC1CCC2(CC1)OOC1(O2)C2CC3CC(C2)CC1C3 (stereo not drawn) [compound 281] |  | 13 | 92 | 12.4 | 100 |  |  |  |  | 99.23 | 45 | 8 | 100 | 
8 | CS(=O)(=O)O.c1cc(OCC2CCC3(CC2)OOC2(O3)C3CC4CC(C3)CC2C4)ccn1 (stereo not drawn) [compound 301] |  | 8.8 | 58 | 23 | 100 |  |  | >30 | 100 |  |  |  |  | 
9 | Cc1ccc(S(=O)(=O)O)cc1.NC1CCC(NC(=O)CC2CCC3(CC2)OOC2(O3)C3CC4CC(C3)CC2C4)CC1 (stereo not drawn) [compound 315] |  | 12.2 | 81 | 22 | 99.99 |  |  | >30 | 100 |  |  |  |  | 
